Data taken from patent US20240101570A1 (AMGEN INC., priority 2020, published 2024).

Experiments:
HCT116 MTAP null cells = test: HCT116 MTAP null cell proliferation / viability (CellTiter-Glo, 6 days); type: cell-based; details: HCT116-MTAP null, 144 h, HCT116 MTAP null cells, 6 days, CellTiter-Glo; read-out: HCT-116 MTAP null IC50
In short: (§1)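 IC50 values derive from sigmoidal dose-response fits, some with Hill slope fixed at −1 and top constrained to 100%, others from 4-parameter logistic models. They reflect CellTiter-Glo viability after 6 days of compound exposure at up to 10 or 50 μM.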

HCT116 WT cells = test: HCT116 WT cell proliferation / viability (CellTiter-Glo, 6 days); type: cell-based; details: Homo sapiens, HCT-116, 144 h, HCT116 WT cells, 6 days, CellTiter-Glo; read-out: HCT-116 WT IC50
In short: as §1

CC(C)N(C(=O)c1cc2c3c(c(N)nc2cn1)COC3)[C@@H](C)c1ccc(C(F)(F)F)cn1 (single isomer, unassigned) [Example 847]
IC50 (HCT116 MTAP null cells): 1.86 µM
IC50 (HCT116 WT cells): 36.1 µM

CC(C)N(C(=O)c1cc2c3c(c(N)nc2cn1)COC3)[C@H](C)c1ccc(C(F)(F)F)cn1 (single isomer, unassigned) [Example 848]
IC50 (HCT116 MTAP null cells): 0.453 µM
IC50 (HCT116 WT cells): 11.5 µM

CC[C@H](c1ccc(C(F)(F)F)cn1)N(C)C(=O)c1cc2c3c(c(N)nc2cn1)COC3 (single isomer, unassigned) [Example 849]
IC50 (HCT116 MTAP null cells): 0.879 µM
IC50 (HCT116 WT cells): 24.4 µM

CC[C@@H](c1ccc(C(F)(F)F)cn1)N(C)C(=O)c1cc2c3c(c(N)nc2cn1)COC3 (single isomer, unassigned) [Example 850]
IC50 (HCT116 MTAP null cells): 8.35 µM
IC50 (HCT116 WT cells): > 50 µM

C[C@H](c1ccc(C(F)(F)F)cn1)N(C)C(=O)c1ccc2nc(N)c3c(c2c1)CO[C@@H]3C (single isomer, unassigned) [Example 851]
IC50 (HCT116 MTAP null cells): 0.047 µM
IC50 (HCT116 WT cells): 4 µM

C[C@H]1OCc2c1c(N)nc1ccc(C(=O)N(C)[C@@H](C)c3ccc(C(F)(F)F)cn3)cc21 (single isomer, unassigned) [Example 852]
IC50 (HCT116 MTAP null cells): 3.16 µM
IC50 (HCT116 WT cells): > 50 µM

C[C@H](c1ncc(F)cc1F)N(C)C(=O)c1cc2c(cc1F)nc(N)c1cnn(C)c12 (single isomer, unassigned) [Example 853]
IC50 (HCT116 MTAP null cells): 0.167 µM
IC50 (HCT116 WT cells): 14.3 µM

C[C@H](c1ccc(C(F)(F)F)cn1)N(C)C(=O)c1cc2c3c(c(N)nc2cn1)COC3 (single isomer, unassigned) [Example 854]
IC50 (HCT116 MTAP null cells): 0.086 µM
IC50 (HCT116 WT cells): 3.28 µM

C[C@H](c1ccc(C(F)(F)F)nn1)N(C)C(=O)c1ccc2nc(N)c3cnn(C)c3c2c1 (single isomer, unassigned) [Example 855]
IC50 (HCT116 MTAP null cells): 0.164 µM
IC50 (HCT116 WT cells): 28.9 µM

C[C@H](c1ccc(C(F)(F)F)nn1)N(C)C(=O)c1ccc2nc(N)c3c(c2c1)CO[C@@H]3C (single isomer, unassigned) [Example 856]
IC50 (HCT116 MTAP null cells): 0.087 µM
IC50 (HCT116 WT cells): 8.48 µM

C[C@H](c1ccc(C(F)(F)F)cc1)N(C)C(=O)c1cc2c3c(c(N)nc2cc1F)COC3 (single isomer, unassigned) [Example 857]
IC50 (HCT116 MTAP null cells): 0.026 µM
IC50 (HCT116 WT cells): 1.09 µM

C[C@H](c1ccc(C(F)(F)F)nn1)N(C)C(=O)c1cc2c3c(c(N)nc2cc1F)COC3 (single isomer, unassigned) [Example 858]
IC50 (HCT116 MTAP null cells): 0.041 µM
IC50 (HCT116 WT cells): 3.33 µM

C[C@H]1OCc2c1c(N)nc1cc(F)c(C(=O)N(C)[C@@H](C)c3ccc(C(F)(F)F)cc3)cc21 (single isomer, unassigned) [Example 859]
IC50 (HCT116 MTAP null cells): 0.583 µM
IC50 (HCT116 WT cells): 17.5 µM

C[C@H](c1ccc(C(F)(F)F)cc1)N(C)C(=O)c1cc2c3c(c(N)nc2cc1F)[C@@H](C)OC3 (single isomer, unassigned) [Example 860]
IC50 (HCT116 MTAP null cells): 0.017 µM
IC50 (HCT116 WT cells): 0.849 µM

C[C@H](c1ncc(C(F)(F)F)cc1F)N(C)C(=O)c1cc2c(cn1)nc(N)c1c2cnn1C (single isomer, unassigned) [Example 861]
IC50 (HCT116 MTAP null cells): 0.205 µM
IC50 (HCT116 WT cells): 13.6 µM

C[C@H](c1ccc(C(F)(F)F)nn1)N(C)C(=O)c1cc2c3c(c(N)nc2cc1F)[C@@H](C)OC3 (single isomer, unassigned) [Example 862]
IC50 (HCT116 MTAP null cells): 0.031 µM
IC50 (HCT116 WT cells): 2.19 µM

C[C@H](c1ncc(C(F)(F)F)cc1F)N(C)C(=O)c1cc2c(cc1F)nc(N)c1cnn(C)c12 (single isomer, unassigned) [Example 863]
IC50 (HCT116 MTAP null cells): 0.007 µM
IC50 (HCT116 WT cells): 0.34 µM

C[C@@H](c1ncc(C(F)(F)F)cc1F)N(C)C(=O)c1cc2c(cc1F)nc(N)c1cnn(C)c12 (single isomer, unassigned) [Example 864]
IC50 (HCT116 MTAP null cells): 0.618 µM
IC50 (HCT116 WT cells): 22.7 µM

C[C@H](c1ncc(C(F)(F)F)cc1F)N(C)C(=O)c1cc2c(cc1F)nc(N)c1c2cnn1C (single isomer, unassigned) [Example 865]
IC50 (HCT116 MTAP null cells): 0.059 µM
IC50 (HCT116 WT cells): 2.81 µM

COc1cc(C(F)(F)F)cnc1[C@@H](C)N(C)C(=O)c1cc2c(cc1F)nc(N)c1c2cnn1C (single isomer, unassigned) [Example 866]
IC50 (HCT116 MTAP null cells): 0.309 µM
IC50 (HCT116 WT cells): 11.3 µM

COc1cc(C(F)(F)F)cnc1[C@@H](C)N(C)C(=O)c1cc2c(cc1F)nc(N)c1cnn(C)c12 (single isomer, unassigned) [Example 867]
IC50 (HCT116 MTAP null cells): 0.157 µM
IC50 (HCT116 WT cells): 7.84 µM

C[C@H](c1ccc(S(F)(F)(F)(F)F)cc1)N(C)C(=O)c1cc2c(cn1)nc(N)c1c2cnn1C (single isomer, unassigned) [Example 868]
IC50 (HCT116 MTAP null cells): 0.059 µM
IC50 (HCT116 WT cells): 3.84 µM

C[C@@H](c1ccc(S(F)(F)(F)(F)F)cc1)N(C)C(=O)c1cc2c(cc1F)nc(N)c1cnn(C)c12 (single isomer, unassigned) [Example 869]
IC50 (HCT116 MTAP null cells): 0.627 µM
IC50 (HCT116 WT cells): 8.43 µM

C[C@H](c1ccc(S(F)(F)(F)(F)F)cc1)N(C)C(=O)c1cc2c(cc1F)nc(N)c1cnn(C)c12 (single isomer, unassigned) [Example 870]
IC50 (HCT116 MTAP null cells): 0.007 µM
IC50 (HCT116 WT cells): 0.162 µM

CC[C@H](c1cncnc1)N(Cc1ccc(S(F)(F)(F)(F)F)cc1)C(=O)c1cc2c(cn1)nc(N)c1cnn(C)c12 (single isomer, unassigned) [Example 871]
IC50 (HCT116 MTAP null cells): 0.025 µM
IC50 (HCT116 WT cells): 0.078 µM

CC[C@@H](c1cncnc1)N(Cc1ccc(S(F)(F)(F)(F)F)cc1)C(=O)c1cc2c(cn1)nc(N)c1cnn(C)c12 (single isomer, unassigned) [Example 872]
IC50 (HCT116 MTAP null cells): 0.075 µM
IC50 (HCT116 WT cells): 4.5 µM

C[C@H](c1ccc(F)cn1)N(C)C(=O)c1cc2c(cc1F)nc(N)c1cnn(C)c12 (single isomer, unassigned) [Example 873]
IC50 (HCT116 MTAP null cells): 0.066 µM
IC50 (HCT116 WT cells): 7.32 µM

C[C@@H](c1ccc(F)cn1)N(C)C(=O)c1cc2c(cc1F)nc(N)c1cnn(C)c12 (single isomer, unassigned) [Example 874]
IC50 (HCT116 MTAP null cells): 0.929 µM
IC50 (HCT116 WT cells): 36 µM

CCN(C(=O)c1cc2c(cc1F)nc(N)c1cnn(C)c12)[C@H](C)c1ccc(F)cn1 (single isomer, unassigned) [Example 875]
IC50 (HCT116 MTAP null cells): 0.025 µM
IC50 (HCT116 WT cells): 1.42 µM

CCN(C(=O)c1cc2c(cc1F)nc(N)c1cnn(C)c12)[C@@H](C)c1ccc(F)cn1 (single isomer, unassigned) [Example 876]
IC50 (HCT116 MTAP null cells): 0.334 µM
IC50 (HCT116 WT cells): 30.4 µM

C[C@@H](c1ccc(C(F)(F)F)nn1)N(C(=O)c1cc2c(cc1F)nc(N)c1cnn(C)c12)C1CC1 (single isomer, unassigned) [Example 877]
IC50 (HCT116 MTAP null cells): 0.756 µM
IC50 (HCT116 WT cells): 44.1 µM

C[C@H](c1ccc(C(F)(F)F)nn1)N(C(=O)c1cc2c(cc1F)nc(N)c1cnn(C)c12)C1CC1 (single isomer, unassigned) [Example 878]
IC50 (HCT116 MTAP null cells): 0.01 µM
IC50 (HCT116 WT cells): 0.709 µM

C[C@H](c1ccc(C(F)(F)F)nn1)N(C)C(=O)c1cc2c(cc1C(F)(F)F)nc(N)c1cnn(C)c12 (single isomer, unassigned) [Example 879]
IC50 (HCT116 MTAP null cells): 0.181 µM
IC50 (HCT116 WT cells): 12.3 µM

C[C@@H](c1ccc(C(F)(F)F)nn1)N(C(=O)c1cc2c(cc1Cl)nc(N)c1cnn(C)c12)C1CC1 (single isomer, unassigned) [Example 880]
IC50 (HCT116 MTAP null cells): 0.137 µM
IC50 (HCT116 WT cells): 8.31 µM

C[C@H](c1ccc(C(F)(F)F)nn1)N(C(=O)c1cc2c(cc1Cl)nc(N)c1cnn(C)c12)C1CC1 (single isomer, unassigned) [Example 881]
IC50 (HCT116 MTAP null cells): 0.007 µM
IC50 (HCT116 WT cells): 0.37 µM

Nc1nc2ccc(C(=O)N(Cc3ccc(C(F)(F)F)cn3)CC3CC3)cc2c2c1COC2 [Example 300, 4-amino-N-(cyclopropylmethyl)-N-[[5-(trifluoromethyl)-2-pyridyl]methyl]-1,3-dihydrofuro[3,4-c]quinoline-8-carboxamide]
IC50 (HCT116 MTAP null cells): 0.041 µM
IC50 (HCT116 WT cells): 1.34 µM

CC(C)N(Cc1ccc(C#N)cn1)C(=O)c1ccc2nc(N)c3c(c2c1)COC3 [Example 301, 4-amino-N-((5-cyano-2-pyridinyl)methyl)-N-(2-propanyl)-1,3-dihydrofuro[3,4-c]quinoline-8-carboxamide]
IC50 (HCT116 MTAP null cells): 0.259 µM
IC50 (HCT116 WT cells): 11 µM

CC(C)N(Cc1ccc(C2CC2)nc1)C(=O)c1ccc2nc(N)c3c(c2c1)COC3 [Example 302, 4-amino-N-((6-cyclopropyl-3-pyridinyl)methyl)-N-(2-propanyl)-1,3-dihydrofuro[3,4-c]quinoline-8-carboxamide]
IC50 (HCT116 MTAP null cells): 0.9 µM
IC50 (HCT116 WT cells): 17.3 µM

COC[C@@H](C)N(Cc1ccc(Cl)nn1)C(=O)c1ccc2nc(N)c3c(c2c1)COC3 [Example 305, 4-amino-N-((6-chloro-3-pyridazinyl)methyl)-N-((2R)-1-methoxy-2-propanyl)-1,3-dihydrofuro[3,4-c]quinoline-8-carboxamide]
IC50 (HCT116 MTAP null cells): 0.027 µM
IC50 (HCT116 WT cells): 0.861 µM

COC[C@@H](C)N(Cc1ccc(Cl)nn1)C(=O)c1cc2c3c(c(N)nc2cn1)COC3 [Example 306, 4-amino-N-((6-chloro-3-pyridazinyl)methyl)-N-((2R)-1-methoxy-2-propanyl)-1,3-dihydrofuro[3,4-c][1,7]naphthyridine-8-carboxamide]
IC50 (HCT116 MTAP null cells): 0.217 µM
IC50 (HCT116 WT cells): 7.99 µM

COC[C@@H](C)N(Cc1ccc(Cl)nn1)C(=O)c1ccc2nc(N)c3c(c2c1)CO[C@@H]3C [Example 307, (3R)-4-amino-N-((6-chloro-3-pyridazinyl)methyl)-N-((2R)-1-methoxy-2-propanyl)-3-methyl-1,3-dihydrofuro[3,4-c]quinoline-8-carboxamide]
IC50 (HCT116 MTAP null cells): 0.018 µM
IC50 (HCT116 WT cells): 0.471 µM

COC[C@@H](C)N(Cc1ccc(Cl)nn1)C(=O)c1cc2c3c(c(N)nc2cn1)[C@@H](C)OC3 [Example 308, (3R)-4-amino-N-((6-chloro-3-pyridazinyl)methyl)-N-((2R)-1-methoxy-2-propanyl)-3-methyl-1,3-dihydrofuro[3,4-c][1,7]naphthyridine-8-carboxamide]
IC50 (HCT116 MTAP null cells): 0.124 µM
IC50 (HCT116 WT cells): 5.09 µM
